Legend:
[1] = target: T1, 15-lipoxygenase in primary peripheral blood eosinophils (Homo sapiens, UniProt P16050); test: Inhibition of 15-lipoxygenase in human primary eosinophils with short-term exposure, 15-HETE LC-MS/MS; settings: 10 μM for 30 minutes, 3 μM arachidonic acid, 5 minutes
T1 sequence (P16050 1-662): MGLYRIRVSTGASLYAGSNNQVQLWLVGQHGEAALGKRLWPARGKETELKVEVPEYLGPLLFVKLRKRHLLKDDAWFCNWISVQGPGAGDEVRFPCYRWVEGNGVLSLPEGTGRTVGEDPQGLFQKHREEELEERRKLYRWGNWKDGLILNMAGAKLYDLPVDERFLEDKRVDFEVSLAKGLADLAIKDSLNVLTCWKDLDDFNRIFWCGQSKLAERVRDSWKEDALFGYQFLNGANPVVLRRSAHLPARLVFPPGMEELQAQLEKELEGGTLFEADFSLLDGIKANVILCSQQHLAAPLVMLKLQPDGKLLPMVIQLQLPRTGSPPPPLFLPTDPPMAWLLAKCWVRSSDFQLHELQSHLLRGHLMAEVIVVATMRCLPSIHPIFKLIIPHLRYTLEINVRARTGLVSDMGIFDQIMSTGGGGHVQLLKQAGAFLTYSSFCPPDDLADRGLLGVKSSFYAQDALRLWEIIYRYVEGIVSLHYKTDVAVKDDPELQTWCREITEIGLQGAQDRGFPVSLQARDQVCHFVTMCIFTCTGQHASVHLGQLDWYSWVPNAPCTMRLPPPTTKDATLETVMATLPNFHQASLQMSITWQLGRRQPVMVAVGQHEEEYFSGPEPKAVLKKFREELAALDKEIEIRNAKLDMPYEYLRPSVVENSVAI
Experimental: Two independent experiments were performed in which primary peripheral blood eosinophils (StemExpress) were thawed from frozen and allowed to recover in growth media for 4 hours at 37° C. […] Arachidonic acid was added to final concentration of 3 μM and experiment started. At 5 minutes post-treatment, the entire reaction was quenched with an equal volume of extraction buffer (methanol, 60 mM ascorbic acid, 0.1% acetic acid) and 15-HETE quantified. Briefly, 15-HETE was quantified using LC-MS/MS (QTrap5500, Applied Biosystems). […] Deuterated 15-HETE (Cayman Chemical) was used as the internal standard. […] Oxidized fatty acids were extracted using liquid/liquid extraction with acetonitrile as a diluent. Reverse chromatography was performed using a Unison UK-C18 column (Imtakt, 50×3 mm i.d., 3 μm, PN: UK-032) using a water/acetonitrile gradient containing 0.05% ammonium hydroxide and 0.1% formic acid.

[2] = target: T2, ALOX15 in human nasal epithelial primary cells (HNEpC) (Homo sapiens, UniProt P16050); test: ALOX15 metabolite levels (15-HETE, 13-HODE) in human nasal epithelial primary cells; assay type: cell-based; settings: 5 μM or 1 μM
T2 construct: host or cells: human nasal epithelial primary cells (HNEpC), treated with IL-13
T2 sequence (P16050 1-662): T1 sequence (P16050 1-662)
Experimental: (§1) Human nasal epithelial primary cells (HNEpC) (PromoCell GmbH, Heidelberg, Germany) were cultured according to the manufacturer in provided Primary Cell media in 24 well plates at a density of 25,000 cells per well. Cells were treated with 5 μM or 1 μM of compound 5 or vehicle only (water) in media containing 20 ng/mL IL-13 for 24 hours in a 37° C. cell culture incubator. The following day, media was replaced and fresh media containing 20 ng/mL IL-13 and compound 5 or vehicle was added to each well, then incubated again for 24 hours in a 37° C. cell culture incubator. The process was repeated once more for a 24-hour period.
(§2) To determine levels of arachidonic acid and linoleic acid metabolites after compound treatment, cell media was replaced with fresh Primary Cell media without IL-13. ALOX15 substrate (arachidonic acid or linoleic acid) was added to each well at a concentration of 1.5 μM and cells further incubated 37° C. for 1 hour. Media was collected from each well and quenched with an equal volume of LC/MS extraction buffer (methanol, 60 mM ascorbic acid, 0.1% acetic acid).
15-HETE and 13-HODE were quantified using LC-MS/MS (QTrap5500, Applied Biosystems). Q1/Q3 masses: 319.10/219.10 for 15-HETE and 295.10/195.10 Da for 13-HODE. Deuterated 15-HETE (Cayman Chemical) was used as the internal standard. The Q1/Q3 masses are 327.10/184.10 Da for the 15-HETE deuterated standard. […]

ALOX15 mRNA = ALOX15 mRNA by RT-qPCR in human nasal epithelial primary cells; assay type: cell-based; settings: 5 μM or 1 μM, 3 x 24 hours with 20 ng/mL IL-13
Experimental: as §1
ALOX15 and POSTN mRNA levels were measured by RT-qPCR. […] The level of ALOX15 mRNA from each sample was measured in triplicate by real-time qPCR on an Applied Biosystems 7500 Fast Real-Time PCR machine using the TaqMan Gene Expression Assay for human ALOX15 (ThermoFisher, assay #Hs00993765_g1). The level of PPIA mRNA was measured in biplex reactions using TaqMan Gene Expression Assay (ThermoFisher, assay #Hs99999904_ml) and used to determine relative ALOX15 mRNA levels in each well using the delta-delta Ct method. […] Relative POSTN mRNA levels were measured as above using TaqMan Gene Expression Assay specific for human POSTN mRNA (ThermoFisher, assay #Hs00170815_m1). […]

[3] = system: Human nasal epithelial primary cells (HNEpC); test: Levels of compound 5 and compound 3 in media of human nasal epithelial primary cells, LC-MS/MS; assay type: in vitro ADME; settings: HNEpC treated with 5 μM or 1 μM compound 5
Experimental: as §1, §2
From the quenched media samples, compound 5 and compound 3 were also quantified. Compound 3 was quantified using LC-MS/MS (QTrap5500, Applied Biosystems). […] Compound 5 was quantified using LC-MS/MS (QTrap5500, Applied Biosystems). […]

## O=C(Nc1ccc(F)cc1Cl)c1nn(COP(=O)(O)O)c(Cl)c1Cl [compound 5, (4,5-dichloro-3-((2-chloro-4-fluorophenyl)carbamoyl)-1H-pyrazol-1-yl)methyl dihydrogen phosphate]
[1]; Experiment 1
  less 15-HETE relative to cells treated with vehicle only (FIG. 3): approximately 79%
[1]; Experiment 2
  less 15-HETE relative to cells treated with vehicle only (FIG. 3): 63%
[2]; 3 x 24 hours with 20 ng/mL IL-13, then 1.5 μM arachidonic acid 1 hour
  15-HETE produced versus vehicle alone (FIG. 4): less
[2]; 3 x 24 hours with 20 ng/mL IL-13, then 1.5 μM linoleic acid 1 hour
  13-HODE produced versus vehicle alone (FIG. 5): less
ALOX15 mRNA
  relative level of ALOX15 mRNA versus vehicle (FIG. 7): lower
[3]
  conversion of compound 5 to compound 3 in quenched media samples (FIG. 6): majority of compound 5 was converted to compound 3

— patent US11116778B2, “Prodrugs of ALOX-15 inhibitors and methods of using the same” (EMPIRICO INC., priority 2019, dated 2021)
